# Test results: paper PMC10710878 (Journal of receptor and signal transduction research, 2022)
# Structures can show the parent of a compound that is named as a salt. Where two headings read alike, the source gives them in different places.
# Experiments:
# [1] = biological target: T1, α2A-AR (Rattus norvegicus, UniProt P22909); type: cell-based; conditions: for pKb (equilibrium dissociation constant, Schild x-intercept): antagonizing EPI-induced reduction of epileptiform burst discharges
# T1 sequence (P22909 1-465): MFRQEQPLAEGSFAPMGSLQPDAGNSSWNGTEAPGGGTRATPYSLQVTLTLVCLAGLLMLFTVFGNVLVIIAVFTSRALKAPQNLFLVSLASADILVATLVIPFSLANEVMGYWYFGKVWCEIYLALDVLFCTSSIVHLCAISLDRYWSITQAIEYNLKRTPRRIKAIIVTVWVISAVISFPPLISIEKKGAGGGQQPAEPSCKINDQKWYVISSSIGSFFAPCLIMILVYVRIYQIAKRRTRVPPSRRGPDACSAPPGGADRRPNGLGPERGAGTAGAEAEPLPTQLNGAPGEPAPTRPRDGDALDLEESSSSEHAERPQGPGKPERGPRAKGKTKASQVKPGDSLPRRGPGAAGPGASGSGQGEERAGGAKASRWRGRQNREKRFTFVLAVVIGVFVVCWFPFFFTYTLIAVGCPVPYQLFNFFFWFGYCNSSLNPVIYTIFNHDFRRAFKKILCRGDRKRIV
# [2] = test system: pyramidal cells; conditions: modulation of α2A-AR, data not shown
# [3] = test system: human 5-HT1A; conditions: published pEC50, ref Table S3; cited from earlier work
# [4] = test system: human α2A-AR versus α2B- or α2C-AR; conditions: published EC50 for cloned human α2-ARs, ref Table S3; cited from earlier work
smiles,measurement,setting,value
COc1ccccc1N1CCN(CCN2C(=O)c3ccccc3C(C)(C)C2=O)CC1 [ARC-239],"pKb (equilibrium dissociation constant, Schild x-intercept)",[1],6.14
CC1c2ccccc2CN1CC1=NCCN1 (centres unmarked) [BRL-44408],"pKb (equilibrium dissociation constant, Schild x-intercept)",[1],7.81
"CNC[C@H](O)c1ccc(O)c(O)c1 [EPI, epinephrine]",hyperpolarization of pyramidal cells,[2],does not hyperpolarize pyramidal cells
CN1CCN(c2ccc(Nc3c4ccccc4nc4ccccc34)cc2)CC1 [JP-1302],"pKb (equilibrium dissociation constant, Schild x-intercept)",[1],5.23
CN1CC[C@]2(CCN3CCc4c(oc5ccccc45)[C@@H]3C2)N(C)C1=O [MK-912],"pKb (equilibrium dissociation constant, Schild x-intercept)",[1],8.32
CCS(=O)(=O)N1CCC[C@@H]2CN3CCc4cc(OC)ccc4[C@@H]3C[C@@H]21 [RS-79948],parallel rightward shift of the control EPI concentration-response curve,[1]; 3 nM RS-79948,4 fold
same,parallel rightward shift of the control EPI concentration-response curve,[1]; 10 nM RS-79948,13 fold
same,parallel rightward shift of the control EPI concentration-response curve,[1]; 30 nM RS-79948,34 fold
same,"pKb (equilibrium dissociation constant, Schild x-intercept)",[1],9.00 ± 0.16
same,Schild regression slope,[1]; dose ratios of EPI EC50,0.95 ± 0.11
COC1(C2=NCCN2)COc2ccccc2O1 (centres unmarked) [RX-821002],"pKb (equilibrium dissociation constant, Schild x-intercept)",[1],8.87
Brc1c(NC2=NCCN2)ccc2nccnc12 [UK-14304],lower potency towards 5-HT1A compared with the α2A-AR,[3],"1,000 fold"
same,greater potency at α2A-ARs than α2B- or α2C-ARs,[4],10 fold
COc1cccc(OC)c1OCCNCC1COc2ccccc2O1 (centres unmarked) [WB-4101],"pKb (equilibrium dissociation constant, Schild x-intercept)",[1],7.34
"Cc1cccc([C@H](C)c2cnc[nH]2)c1C [dexmedetomidine, dexmedetomidine hydrochloride]",α2-AR subtype selectivity in words,[4],no subtype selectivity
"CCC1(C2=NCCN2)Cc2ccccc2O1 (centres unmarked) [efaroxan, efaroxan hydrochloride]",Kb,[1],3.72 nM
"N=C(N)N/N=C/c1c(Cl)cccc1Cl [guanabenz, guanabenz acetate]",Kb,[1],39.8 nM
